Laboratory results as given in PubChem BioAssay (NCI).
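All cell lines were grown in 96-well plates and treated with compound for 48 hours. GI50 is the concentration that inhibits growth by half. TGI is the concentration that stops growth completely.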

Key:
Assay in all cases: NCI anticancer screen, dose series, 48 h
[1] = tested on: HL-60(TB) leukemia
[2] = tested on: HT29 colon
[3] = tested on: KM12 colon
[4] = tested on: MALME-3M melanoma
[5] = tested on: RPMI-8226 leukemia
[6] = tested on: SF-295 CNS
[7] = tested on: SN12C renal
[8] = tested on: SK-MEL-2 melanoma
[9] = tested on: SNB-19 CNS
[10] = tested on: RXF 393 renal

Compound | TGI [1] [µM] | TGI [2] [µM] | TGI [3] [µM] | TGI [4] [µM] | TGI [5] [µM] | TGI [6] [µM] | TGI [7] [µM] | TGI [8] [µM] | TGI [9] [µM] | GI50 [2] [µM] | GI50 [3] [µM] | GI50 [4] [µM] | GI50 [5] [µM] | GI50 [6] [µM] | GI50 [7] [µM] | GI50 [9] [µM] | TGI [10] [µM] | GI50 [1] [µM] | GI50 [10] [µM] | GI50 [8] [µM]
OCCCOC(c1ccccc1)(c1ccccc1)c1ccccc1 | > 100 | 92.8 | > 100 | > 100 | > 100 | > 100 | > 100 |  |  |  |  |  |  |  |  |  |  |  |  | 
CCCn1c(SC)nc(COC(=O)NC)c1COC(=O)NC | > 100 | > 100 | > 100 |  | > 100 | > 100 | > 100 | > 100 | > 100 |  |  |  |  |  |  |  |  |  |  | 
C1C[OH+]CC[OH+]CCNCC[OH+]CC[OH+]CCN1.[Cl-].[Pt+4] |  | > 100 | > 100 | > 100 | > 100 | > 100 | > 100 |  | > 100 | > 100 | > 100 | > 100 | > 100 | > 100 | > 100 | > 100 |  |  |  | 
O=C(O)C1C2CCC(O2)C1C(=O)N1CCCCC1 (configuration not stated) |  | 15.1 | 37.2 | 23.6 | 7.88 | 23.9 | 7.17 | 21.2 | 38.2 |  |  |  |  |  |  |  | 8.35 |  |  | 
O=C(c1ccc2ccccc2c1)c1c(C(F)(F)F)n([O-])c2cc(F)c(F)cc2[n+]1=O | 3.55 | 5.29 | 8.1 | 2.65 | 3.79 | 4.9 |  | 5.52 | 4.1 | 2.34 | 0.937 | 1.13 | 1.12 | 2.02 |  | 2 | 2.97 | 1.37 | 1.49 | 2.16
O=C(/C=C/C12c3ccccc3C(c3ccccc31)C1C(=O)N(c3ccccc3)C(=O)C12)c1ccccc1 (configuration not stated) | 8.66 | > 100 | > 100 |  | 7.69 |  | > 100 | 7.85 | > 100 | 2.69 | 2.64 |  | 1.55 |  | 2.53 | 3.08 | 2.82 | 1.02 | 1.21 | 2.13
CCCNCCCC(NC(C)=O)C(=O)NCc1ccccc1 (configuration not stated) |  | > 100 | > 100 | > 100 | > 100 | > 100 | > 100 | > 100 | > 100 |  |  |  |  |  |  |  | > 100 |  |  | 
O=c1[nH]c(=O)n([C@@H]2C[C@H](CO)[C@H](O)C2)cc1/C=C/Br | > 100 | > 100 | > 100 | > 100 | > 100 | > 100 |  | > 100 | > 100 |  |  |  |  |  |  |  |  |  |  | 
FC(F)(F)c1cc(-c2nnc3n2N=C(N2CCCC2)CS3)cc(C(F)(F)F)c1 |  | > 50 | > 50 | > 50 | > 50 | > 50 | > 50 | > 50 | > 50 | > 50 | > 50 | > 50 | > 50 | 19.2 | > 50 | 30.2 | > 50 |  | 26.6 | > 50
